Measurements as given in US7632918B2, “Semi-synthetic glycopeptides with antibiotic activity” (Novartis Vaccines and Diagnostics, Inc., priority 2005, dated 2009).
In brackets after ≈: the same amount, converted by molar mass.

Legend:
Test in all cases: MIC, broth microdilution in Meuller-Hinton broth (NCCLS)
559 E. faecalis (GSE) = format: cell-based, Enterococcus faecalis; details: glycopeptide-sensitive clinical isolate
Procedure: (§1) Antibacterial activity in vitro was investigated by broth microdilution method in Meuller-Hinton broth as recommended by NCCLS. All strains tested were clinical isolates either sensitive or resistant to natural glycopeptides. Results are reported in the tables as MIC (minimal inhibitory concentration) in μg/ml.
(§2) The glycopeptides were tested against a variety of strains, indicated below, including Staphylococus epidermidis, Staphylococus haemolyticus, glycopeptides-intermediate Staphylococus aureus (GISA), glocopeptide-sensitive Enterococcus faecalis (GSE), and glocopeptide-resistant Enterococcus faecalis (GRE). Results are shown in the table as minimum inhibitory concentration (MIC) in units of μg/ml: […]

560 E. faecalis (GRE) = format: cell-based, Enterococcus faecalis; details: glycopeptide-resistant clinical isolate
Procedure: as §1, §2

533 S. epidermidis = format: cell-based, Staphylococus epidermidis; details: clinical isolate
Procedure: as §1, §2

3798 S. aureus (GISA) = format: cell-based, Staphylococus aureus; details: glycopeptides-intermediate clinical isolate
Procedure: as §1, §2

3797 S. aureus (GISA) = format: cell-based, Staphylococus aureus; details: glycopeptides-intermediate clinical isolate
Procedure: as §1, §2

602 S. haemolyticus = format: cell-based, Staphylococus haemolyticus; details: clinical isolate
Procedure: as §1, §2

569 E. faecium (GRE) = format: cell-based; details: glycopeptide-resistant clinical isolate
Procedure: as §1, §2

568 E. faecium (GSE) = format: cell-based; details: glycopeptide-sensitive clinical isolate
Procedure: as §1, §2

| SMILES | MIC 559 E. faecalis (GSE) (559 E. faecalis (GSE)) | MIC 560 E. faecalis (GRE) (560 E. faecalis (GRE)) | MIC 533 S. epidermidis (533 S. epidermidis) | MIC 3798 S. aureus (GISA) (3798 S. aureus (GISA)) | MIC 3797 S. aureus (GISA) (3797 S. aureus (GISA)) | MIC 602 S. haemolyticus (602 S. haemolyticus) | MIC 569 E. faecium (GRE) (569 E. faecium (GRE)) | MIC 568 E. faecium (GSE) (568 E. faecium (GSE)) |
| --- | --- | --- | --- | --- | --- | --- | --- | --- |
| CNC(CC(C)C)C(=O)NC1C(=O)NC(CC(N)=O)C(=O)NC2C(=O)NC3C(=O)NC(C(=O)NC(C(=O)O)c4cc(O)cc(O)c4-c4cc3ccc4O)C(OC3CC(C)(N)C(O)C(C)O3)c3ccc(cc3)Oc3cc2cc(c3OC2OC(CO)C(O)C(O)C2OC2CC(C)(NC(=O)[C@H](N)Cc3ccccc3)C(O)C(C)O2)Oc2ccc(cc2Cl)C1O (stereo partly drawn) [Compound 229] | 0.5 µg/mL (≈ 0.293 µM) | >64 µg/mL | 1 µg/mL (≈ 0.586 µM) | >32 µg/mL | >32 µg/mL | 1 µg/mL (≈ 0.586 µM) | >64 µg/mL | 0.25 µg/mL (≈ 0.147 µM) |
| CCCCc1ccc(CNCC(=O)NC2(C)CC(OC3C(Oc4c5cc6cc4Oc4ccc(cc4Cl)C(O)C4NC(=O)C(NC(=O)C6NC(=O)C(CC(N)=O)NC(=O)C(NC(=O)C(CC(C)C)NC)C(O)c6ccc(c(Cl)c6)O5)c5ccc(O)c(c5)-c5c(O)cc(O)cc5C(C(=O)O)NC4=O)OC(CO)C(O)C3O)OC(C)C2O)cc1 (stereo not drawn) [Compound 182] | 1 µg/mL (≈ 0.605 µM) | 32 µg/mL (≈ 19.4 µM) | 0.25 µg/mL (≈ 0.151 µM) | 2 µg/mL (≈ 1.21 µM) | 2 µg/mL (≈ 1.21 µM) | 0.5 µg/mL (≈ 0.303 µM) | 32 µg/mL (≈ 19.4 µM) | 0.5 µg/mL (≈ 0.303 µM) |
| CCCCc1ccc(CNCC(=O)NC2(C)CC(OC3C(Oc4c5cc6cc4Oc4ccc(cc4Cl)C(O)C4NC(=O)C(NC(=O)C6NC(=O)C(CC(N)=O)NC(=O)C(NC(=O)C(CC(C)C)NC)C(O)c6ccc(c(Cl)c6)O5)c5ccc(O)c(c5)-c5c(O)cc(O)cc5C(C(=O)NCc5ccc(F)cc5)NC4=O)OC(CO)C(O)C3O)OC(C)C2O)cc1 (stereo not drawn) [Compound 276] | 4 µg/mL (≈ 2.27 µM) | 16 µg/mL (≈ 9.09 µM) | 0.5 µg/mL (≈ 0.284 µM) | 2 µg/mL (≈ 1.14 µM) | 2 µg/mL (≈ 1.14 µM) | 2 µg/mL (≈ 1.14 µM) | 16 µg/mL (≈ 9.09 µM) | 2 µg/mL (≈ 1.14 µM) |
| CCCCc1ccc(CNCC(=O)NC2(C)CC(OC3C(Oc4c5cc6cc4Oc4ccc(cc4Cl)C(O)C(NC(=O)C(CC(C)C)NC)C(=O)NC(CC(N)=O)C(=O)NC6C(=O)NC4C(=O)NC(C(=O)NC(C(=O)NC(C)C67CC8CC(CC(C8)C6)C7)c6cc(O)cc(O)c6-c6cc4ccc6O)C(OC4CC(C)(N)C(O)C(C)O4)c4ccc(cc4)O5)OC(CO)C(O)C3O)OC(C)C2O)cc1 (stereo not drawn) [Compound 264] | 4 µg/mL (≈ 2.08 µM) | 8 µg/mL (≈ 4.16 µM) | 4 µg/mL (≈ 2.08 µM) | 16 µg/mL (≈ 8.32 µM) | 8 µg/mL (≈ 4.16 µM) | 8 µg/mL (≈ 4.16 µM) | 8 µg/mL (≈ 4.16 µM) | 4 µg/mL (≈ 2.08 µM) |
| CNC(CC(C)C)C(=O)NC1C(=O)NC(CC(N)=O)C(=O)NC2C(=O)NC3C(=O)NC(C(=O)NC(C(=O)O)c4cc(O)cc(O)c4-c4cc3ccc4O)C(OC3CC(C)(N)C(O)C(C)O3)c3ccc(cc3)Oc3cc2cc(c3OC2OC(CO)C(O)C(O)C2OC2CC(C)(NC(=O)CNCc3cn(Cc4ccccc4)c4ccccc34)C(O)C(C)O2)Oc2ccc(cc2Cl)C1O (stereo not drawn) [Compound 225] | 2 µg/mL (≈ 1.09 µM) | 64 µg/mL (≈ 34.9 µM) | 1 µg/mL (≈ 0.545 µM) | 4 µg/mL (≈ 2.18 µM) | 4 µg/mL (≈ 2.18 µM) | 2 µg/mL (≈ 1.09 µM) | 16 µg/mL (≈ 8.72 µM) | 4 µg/mL (≈ 2.18 µM) |
| CNC(CC(C)C)C(=O)NC1C(=O)NC(CC(N)=O)C(=O)NC2C(=O)NC3C(=O)NC(C(=O)NC(C(=O)O)c4cc(O)cc(O)c4-c4cc3ccc4O)C(OC3CC(C)(N)C(O)C(C)O3)c3ccc(cc3)Oc3cc2cc(c3OC2OC(CO)C(O)C(O)C2OC2CC(C)(NC(=O)CNCc3ccc(C(F)(F)F)cc3)C(O)C(C)O2)Oc2ccc(cc2Cl)C1O (stereo not drawn) [Compound 294] | 0.5 µg/mL (≈ 0.282 µM) | >64 µg/mL | 1 µg/mL (≈ 0.564 µM) | 4 µg/mL (≈ 2.26 µM) | 4 µg/mL (≈ 2.26 µM) | 1 µg/mL (≈ 0.564 µM) | >64 µg/mL | 0.5 µg/mL (≈ 0.282 µM) |
| CCCCCCCCCCN(CCCCCCCCCC)CC(=O)NC1(C)CC(OC2C(Oc3c4cc5cc3Oc3ccc(cc3Cl)C(O)C(NC(=O)C(CC(C)C)NC)C(=O)NC(CC(N)=O)C(=O)NC5C(=O)NC3C(=O)NC(C(=O)NC(C(=O)O)c5cc(O)cc(O)c5-c5cc3ccc5O)C(OC3CC(C)(N)C(O)C(C)O3)c3ccc(cc3)O4)OC(CO)C(O)C2O)OC(C)C1O (stereo not drawn) [Compound 194] | 4 µg/mL (≈ 2.11 µM) | 16 µg/mL (≈ 8.44 µM) | 2 µg/mL (≈ 1.06 µM) | 8 µg/mL (≈ 4.22 µM) | 8 µg/mL (≈ 4.22 µM) | 2 µg/mL (≈ 1.06 µM) | 8 µg/mL (≈ 4.22 µM) | 2 µg/mL (≈ 1.06 µM) |
| CCCCCCCCOc1ccc(CNCC(=O)NC2(C)CC(OC3C(Oc4c5cc6cc4Oc4ccc(cc4Cl)C(O)C(NC(=O)C(CC(C)C)NC)C(=O)NC(CC(N)=O)C(=O)NC6C(=O)NC4C(=O)NC(C(=O)NC(C(=O)NC6C7CC8CC(C7)CC6C8)c6cc(O)cc(O)c6-c6cc4ccc6O)C(OC4CC(C)(N)C(O)C(C)O4)c4ccc(cc4)O5)OC(CO)C(O)C3O)OC(C)C2O)cc1 (stereo not drawn) [Compound 265] | – | – | 32 µg/mL (≈ 16.3 µM) | >32 µg/mL | >32 µg/mL | 32 µg/mL (≈ 16.3 µM) | – | – |
| CNC(CC(C)C)C(=O)NC1C(=O)NC(CC(N)=O)C(=O)NC2C(=O)NC3C(=O)NC(C(=O)NC(C(=O)O)c4cc(O)cc(O)c4-c4cc3ccc4O)C(OC3CC(C)(N)C(O)C(C)O3)c3ccc(cc3)Oc3cc2cc(c3OC2OC(CO)C(O)C(O)C2OC2CC(C)(NC(=O)CNC(=O)OCC3c4ccccc4-c4ccccc43)C(O)C(C)O2)Oc2ccc(cc2Cl)C1O (stereo not drawn) [Compound 221] | 0.5 µg/mL (≈ 0.272 µM) | >64 µg/mL | – | – | – | – | 64 µg/mL (≈ 34.8 µM) | 0.5 µg/mL (≈ 0.272 µM) |
| CNC(CC(C)C)C(=O)NC1C(=O)NC(CC(N)=O)C(=O)NC2C(=O)NC3C(=O)NC(C(=O)NC(C(=O)O)c4cc(O)cc(O)c4-c4cc3ccc4O)C(OC3CC(C)(N)C(O)C(C)O3)c3ccc(cc3)Oc3cc2cc(c3OC2OC(CO)C(O)C(O)C2OC2CC(C)(NC(=O)CNC(=O)OC34CC5CC(CC(C5)C3)C4)C(O)C(C)O2)Oc2ccc(cc2Cl)C1O (stereo not drawn) [Compound 222] | 2 µg/mL (≈ 1.12 µM) | >64 µg/mL | – | – | – | – | >64 µg/mL | 1 µg/mL (≈ 0.558 µM) |
| CCCCCCCCOc1ccc(CNCC(=O)NC2(C)CC(OC3C(Oc4c5cc6cc4Oc4ccc(cc4Cl)C(O)C(NC(=O)C(CC(C)C)NC)C(=O)NC(CC(N)=O)C(=O)NC6C(=O)NC4C(=O)NC(C(=O)NC(C(=O)NC(C)C67CC8CC(CC(C8)C6)C7)c6cc(O)cc(O)c6-c6cc4ccc6O)C(OC4CC(C)(N)C(O)C(C)O4)c4ccc(cc4)O5)OC(CO)C(O)C3O)OC(C)C2O)cc1 (stereo not drawn) [Compound 266] | – | – | 16 µg/mL (≈ 8.02 µM) | >32 µg/mL | >32 µg/mL | 32 µg/mL (≈ 16 µM) | – | – |
